Assay results from patent US20210371782A1, “METHODS FOR OPTICAL MICROPATTERNING OF HYDROGELS AND USES THEREOF” (President and Fellows of Harvard College, priority 2016, published 2021).

Experiment: Solubility in water of riboflavin types
Assay type: physicochemical
Conditions: compared with other types of riboflavin

With `Cc1cc2nc3c(=O)[nH]c(=O)nc-3n(C[C@H](O)[C@H](O)[C@H](O)COP(=O)(O)O)c2cc1C` [riboflavin 5′ phosphate] the solubility in water was “most soluble in water”.
